This is an account of results in ChEMBL document CHEMBL5104131, “Pyrimidine-conjugated fluoroquinolones as new potential broad-spectrum antibacterial agents” (Bioorg Med Chem Lett, 2022).

By MIC is commonly meant the least concentration at which growth counts as inhibited.

What all share (assay type): functional
In assay [1] the test system is Staphylococcus aureus. Nature of the assay: Antibacterial activity against Staphylococcus aureus ATCC 29213 assessed as bacterial growth inhibition by serial dilution method.
Assay [2] concerns Staphylococcus aureus. Nature of the assay: Antibacterial activity against Staphylococcus aureus assessed as bacterial growth inhibition by serial dilution method.
For assay [3], the system named is Pseudomonas aeruginosa. In words: Antibacterial activity against Pseudomonas aeruginosa ATCC 27853 assessed as bacterial growth inhibition by serial dilution method.
The subject of assay [4] is Staphylococcus aureus. In words: Antibacterial activity against Staphylococcus aureus ATCC 25923 assessed as bacterial growth inhibition by serial dilution method.
Another assay has as its system Acinetobacter baumannii. In words: Antibacterial activity against Acinetobacter baumannii assessed as bacterial growth inhibition by serial dilution method.
For assay [5], the system named is Staphylococcus aureus. Nature of the assay: Antibacterial activity against methicillin-resistant Staphylococcus aureus N315 assessed as bacterial growth inhibition by serial dilution method.
For assay [6], the system named is Escherichia coli. In words: Antibacterial activity against Escherichia coli assessed as bacterial growth inhibition by serial dilution method.
Another assay has as its system Enterococcus faecalis. Nature of the assay: Antibacterial activity against Enterococcus faecalis assessed as bacterial growth inhibition by serial dilution method.
The next assay concerns Klebsiella pneumoniae. In words: Antibacterial activity against Klebsiella pneumoniae assessed as bacterial growth inhibition by serial dilution method.
For assay [7], the system named is Pseudomonas aeruginosa. Nature of the assay: Antibacterial activity against Pseudomonas aeruginosa assessed as bacterial growth inhibition by serial dilution method.
Assay [8] relates to Escherichia coli. In words: Antibacterial activity against Escherichia coli ATCC 25922 assessed as bacterial growth inhibition by serial dilution method.
Assay [9] has as its system Staphylococcus aureus. In words: Potency index, ratio of norfloxacin MIC to test compound MIC for antibacterial activity against methicillin-resistant Staphylococcus aureus N315 assessed as bacterial growth inhibition by serial dilution method.
Assay [10] deals with Staphylococcus aureus. Nature of the assay: Potency index, ratio of ciprofloxacin MIC to test compound MIC for antibacterial activity against methicillin-resistant Staphylococcus aureus N315 assessed as bacterial growth inhibition by serial dilution method.
The next assay relates to Candida tropicalis. Nature of the assay: Antifungal activity against Candida tropicalis assessed as inhibition of fungal growth.
The next assay concerns Aspergillus fumigatus. In words: Antifungal activity against Aspergillus fumigatus assessed as inhibition of fungal growth.

Structures are written as SMILES. Converted amounts (≈) assume the structure as drawn.

Consider `Cc1ccnc(N2CCN(c3cc4c(cc3F)c(=O)c(C(=O)O)cn4C3CC3)CC2)n1`, for which the MIC in the assay on Staphylococcus aureus [1] was 32 µg/mL (≈ 75.6 µM); in the assay on Staphylococcus aureus [2], 256 µg/mL (≈ 605 µM); in the assay with Pseudomonas aeruginosa [3] it was 64 µg/mL (≈ 151 µM); in the assay with Staphylococcus aureus [4], 4 µg/mL (≈ 9.45 µM); with Acinetobacter baumannii, 2 µg/mL (≈ 4.72 µM); with Staphylococcus aureus [5] it was 64 µg/mL (≈ 151 µM). The MIC came out at 64 µg/mL (≈ 151 µM) with Escherichia coli [6]; 64 µg/mL (≈ 151 µM) in the assay with Enterococcus faecalis; 64 µg/mL (≈ 151 µM) with Klebsiella pneumoniae; 64 µg/mL (≈ 151 µM) in the assay on Pseudomonas aeruginosa [7]; 8 µg/mL (≈ 18.9 µM) in the assay on Escherichia coli [8].
On to `O=C(O)c1cn(C2CC2)c2cc(N3CCN(c4ncc(F)cn4)CC3)c(F)cc2c1=O`, for which the MIC was 32 µg/mL (≈ 74.9 µM) with Staphylococcus aureus [1]; 8 µg/mL (≈ 18.7 µM) in the assay with Staphylococcus aureus [2]; 256 µg/mL (≈ 599 µM) with Pseudomonas aeruginosa [3]; 8 µg/mL (≈ 18.7 µM) in the assay on Staphylococcus aureus [4]; above 256 µg/mL with Acinetobacter baumannii; 1 µg/mL (≈ 2.34 µM) in the assay with Staphylococcus aureus [5]. Further, the MIC with Escherichia coli [6] is 128 µg/mL (≈ 299 µM); in the assay with Enterococcus faecalis it was 8 µg/mL (≈ 18.7 µM); in the assay on Klebsiella pneumoniae it was 128 µg/mL (≈ 299 µM); with Pseudomonas aeruginosa [7], 64 µg/mL (≈ 150 µM); in the assay with Escherichia coli [8] it was 8 µg/mL (≈ 18.7 µM). The Ratio in the assay with Staphylococcus aureus [9] is on record as 8; with Staphylococcus aureus [10], 2.
As for `CCn1cc(C(=O)O)c(=O)c2cc(F)c(N3CCNCC3)cc21` [NORFLOXACIN], the MIC amounted to 4 µg/mL (≈ 12.5 µM) in the assay on Staphylococcus aureus [1]; 4 µg/mL (≈ 12.5 µM) in the assay on Staphylococcus aureus [2]; 4 µg/mL (≈ 12.5 µM) with Pseudomonas aeruginosa [3]; 2 µg/mL (≈ 6.26 µM) with Staphylococcus aureus [4]; 2 µg/mL (≈ 6.26 µM) in the assay on Acinetobacter baumannii; 8 µg/mL (≈ 25.1 µM) in the assay on Staphylococcus aureus [5]. The MIC in the assay with Escherichia coli [6] was 8 µg/mL (≈ 25.1 µM); with Enterococcus faecalis it was 4 µg/mL (≈ 12.5 µM); in the assay with Klebsiella pneumoniae it was 4 µg/mL (≈ 12.5 µM); in the assay with Pseudomonas aeruginosa [7] it was 4 µg/mL (≈ 12.5 µM); in the assay with Escherichia coli [8] it was 8 µg/mL (≈ 25.1 µM).
With `O=C(O)c1cn(C2CC2)c2cc(N3CCNCC3)c(F)cc2c1=O` [CIPROFLOXACIN], the MIC was found to be 0.5 µg/mL (≈ 1.51 µM) in the assay on Staphylococcus aureus [1]; 2 µg/mL (≈ 6.04 µM) with Staphylococcus aureus [2]; 1 µg/mL (≈ 3.02 µM) in the assay on Pseudomonas aeruginosa [3]; 2 µg/mL (≈ 6.04 µM) with Staphylococcus aureus [4]; 2 µg/mL (≈ 6.04 µM) with Staphylococcus aureus [5]; 1 µg/mL (≈ 3.02 µM) in the assay on Enterococcus faecalis. In the assay on Klebsiella pneumoniae, the MIC was found to be 2 µg/mL (≈ 6.04 µM).
For `CCc1cnc(N2CCN(c3cc4c(cc3F)c(=O)c(C(=O)O)cn4C3CC3)CC2)nc1`, the minimal inhibitory concentration (MIC) in the assay on Staphylococcus aureus [1] is 64 µg/mL (≈ 146 µM); with Staphylococcus aureus [2] it was 1 µg/mL (≈ 2.29 µM); in the assay with Pseudomonas aeruginosa [3], 64 µg/mL (≈ 146 µM); in the assay with Staphylococcus aureus [4], 8 µg/mL (≈ 18.3 µM); in the assay with Acinetobacter baumannii it was 64 µg/mL (≈ 146 µM); with Staphylococcus aureus [5], 128 µg/mL (≈ 293 µM). Besides, the minimal inhibitory concentration (MIC) was 8 µg/mL (≈ 18.3 µM) in the assay with Escherichia coli [6]; 2 µg/mL (≈ 4.57 µM) in the assay with Candida tropicalis; 64 µg/mL (≈ 146 µM) with Enterococcus faecalis; 256 µg/mL (≈ 585 µM) with Klebsiella pneumoniae; 4 µg/mL (≈ 9.14 µM) with Pseudomonas aeruginosa [7]; 4 µg/mL (≈ 9.14 µM) in the assay with Escherichia coli [8].
For the compound `CCn1cc(C(=O)O)c(=O)c2cc(F)c(N3CCN(c4ncc(F)cn4)CC3)cc21`, the MIC with Staphylococcus aureus [1] was 16 µg/mL (≈ 38.5 µM); in the assay on Staphylococcus aureus [2] it was 4 µg/mL (≈ 9.63 µM); in the assay on Pseudomonas aeruginosa [3], 256 µg/mL (≈ 616 µM); with Staphylococcus aureus [4] it was 16 µg/mL (≈ 38.5 µM); with Acinetobacter baumannii, above 256 µg/mL; in the assay with Staphylococcus aureus [5], 64 µg/mL (≈ 154 µM). Moreover, the MIC came to 16 µg/mL (≈ 38.5 µM) in the assay on Escherichia coli [6]; 4 µg/mL (≈ 9.63 µM) with Enterococcus faecalis; 128 µg/mL (≈ 308 µM) in the assay with Klebsiella pneumoniae; 32 µg/mL (≈ 77 µM) with Pseudomonas aeruginosa [7]; 128 µg/mL (≈ 308 µM) in the assay on Escherichia coli [8].
For `CCn1cc(C(=O)O)c(=O)c2cc(F)c(N3CCN(c4ncc(OC)cn4)CC3)cc21`, the MIC came to 8 µg/mL (≈ 18.7 µM) with Staphylococcus aureus [1]; 2 µg/mL (≈ 4.68 µM) with Aspergillus fumigatus; 2 µg/mL (≈ 4.68 µM) in the assay with Staphylococcus aureus [2]; 128 µg/mL (≈ 299 µM) with Pseudomonas aeruginosa [3]; 32 µg/mL (≈ 74.9 µM) in the assay with Staphylococcus aureus [4]; 128 µg/mL (≈ 299 µM) in the assay with Acinetobacter baumannii. Moreover, the minimal inhibitory concentration (MIC) in the assay on Staphylococcus aureus [5] was 1 µg/mL (≈ 2.34 µM); in the assay with Escherichia coli [6] it was 64 µg/mL (≈ 150 µM); in the assay on Enterococcus faecalis, 1 µg/mL (≈ 2.34 µM); in the assay on Klebsiella pneumoniae it was 64 µg/mL (≈ 150 µM); with Pseudomonas aeruginosa [7], 32 µg/mL (≈ 74.9 µM); with Escherichia coli [8], 2 µg/mL (≈ 4.68 µM).
`CCn1cc(C(=O)O)c(=O)c2cc(F)c(N3CCN(c4ncc(C)cn4)CC3)cc21`: the MIC with Staphylococcus aureus [1] was found to be 4 µg/mL (≈ 9.72 µM); with Aspergillus fumigatus, 2 µg/mL (≈ 4.86 µM); in the assay with Staphylococcus aureus [2], 4 µg/mL (≈ 9.72 µM); with Pseudomonas aeruginosa [3], 128 µg/mL (≈ 311 µM); in the assay with Staphylococcus aureus [4] it was 64 µg/mL (≈ 156 µM); with Acinetobacter baumannii, 128 µg/mL (≈ 311 µM). For the same compound, the MIC with Staphylococcus aureus [5] stood at 8 µg/mL (≈ 19.4 µM); with Escherichia coli [6] it was 16 µg/mL (≈ 38.9 µM); with Enterococcus faecalis it was 2 µg/mL (≈ 4.86 µM); in the assay on Klebsiella pneumoniae, 2 µg/mL (≈ 4.86 µM); with Pseudomonas aeruginosa [7], 4 µg/mL (≈ 9.72 µM); with Escherichia coli [8] it was 2 µg/mL (≈ 4.86 µM).
For the compound `CCn1cc(C(=O)O)c(=O)c2cc(F)c(N3CCN(c4ncc(Br)cn4)CC3)cc21`, the MIC is 64 µg/mL (≈ 134 µM) in the assay with Staphylococcus aureus [1]; 8 µg/mL (≈ 16.8 µM) in the assay on Staphylococcus aureus [2]; 64 µg/mL (≈ 134 µM) in the assay on Pseudomonas aeruginosa [3]; 64 µg/mL (≈ 134 µM) in the assay with Staphylococcus aureus [4]; 64 µg/mL (≈ 134 µM) in the assay on Acinetobacter baumannii; 128 µg/mL (≈ 269 µM) with Staphylococcus aureus [5]. Moreover, the MIC with Escherichia coli [6] amounted to 64 µg/mL (≈ 134 µM); with Enterococcus faecalis, 64 µg/mL (≈ 134 µM); in the assay on Klebsiella pneumoniae, 256 µg/mL (≈ 537 µM); in the assay on Pseudomonas aeruginosa [7], 8 µg/mL (≈ 16.8 µM); with Escherichia coli [8], 128 µg/mL (≈ 269 µM).
